Reference: ChEMBL document CHEMBL3885861, “Open TG-GATES”

Species: Rattus norvegicus
Experiment: Open TG-GATES - Regimen: Daily Repeat
Type: toxicity, organism-based, Sprague-Dawley
Parameters: regimen Daily Repeat, gender Male, age 6 weeks
Details: in vivo, po, route gavage; for APTT / Bas / Eos / Fbg / Hb / Ht / Lym / MCH / MCHC / MCV / Mono / Neu / PT / Plat / RBC / Ret / WBC: tissue Blood; for KIDNEY_L / KIDNEY_R / KIDNEY_TOTAL: tissue Kidney; for LIVER: tissue Liver; for A/G / ALP / ALT / AST / BUN / CRE / Ca / Cl / DBIL / GLC / IP / K / LDH / Na / PL / RALB / TBIL / TC / TG / TP / gamma-GTP: tissue Plasma
[1] = 0 mg/kg, 72 h, dose level Control, time 3 day
[2] = 0 mg/kg, […], dose level Control, time 7 day
[3] = 0 mg/kg, […], dose level Control, time 14 day
[4] = 0 mg/kg, […], dose level Control, time 28 day
[5] = 300 mg/kg, 72 h, dose level Low, time 3 day
[6] = 300 mg/kg, […], dose level Low, time 7 day
[7] = 300 mg/kg, […], dose level Low, time 14 day
[8] = 300 mg/kg, […], dose level Low, time 28 day

COc1ccc(O)c(C(C)(C)C)c1.COc1ccc(O)cc1C(C)(C)C [BUTYLATED HYDROXYANISOLE]
TERMINAL_BW [1]: 225.6 g
APTT [1]: 15.7 s
Bas [1]: 0.2%
Eos [1]: 0.8%
Fbg [1]: 265.6 mg/dL
Hb [1]: 12.9 g/dL
Ht [1]: 38%
Lym [1]: 71.6%
MCH [1]: 20.9 pg
MCHC [1]: 34%
MCV [1]: 61.5 fL
Mono [1]: 2.4%
Neu [1]: 24.3%
PT [1]: 11.5 s
Plat [1]: 140.6 x10_4/uL
RBC [1]: 619 x10_4/ul
Ret [1]: 6.6%
WBC [1]: 90.7 x10_2/uL
KIDNEY_L [1]: 0.9 g
KIDNEY_R [1]: 0.9 g
KIDNEY_TOTAL [1]: 1.9 g
LIVER [1]: 10.1 g
A/G [1]: 0.8
ALP [1]: 1690.8 IU/L
ALT [1]: 37.2 IU/L
AST [1]: 66.4 IU/L
BUN [1]: 12.8 mg/dL
CRE [1]: 0.2 mg/dL
Ca [1]: 11.2 mg/dL
Cl [1]: 106 meq/L
DBIL [1]: 0.02 mg/dL
GLC [1]: 178.4 mg/dL
IP [1]: 7.3 mg/dL
K [1]: 4 meq/L
LDH [1]: 60.4 IU/L
Na [1]: 143 meq/L
PL [1]: 136.2 mg/dL
RALB [1]: 2.6 g/dL
TBIL [1]: 0.064 mg/dL
TC [1]: 76.8 mg/dL
TG [1]: 69.4 mg/dL
TP [1]: 5.8 g/dL
gamma-GTP [1]: 1 IU/L
TERMINAL_BW [2]: 252.9 g
TERMINAL_BW [3]: 320.1 g
TERMINAL_BW [4]: 409.6 g
APTT [2]: 19 s
Bas [2]: 0.3%
Eos [2]: 0.8%
Fbg [2]: 288.2 mg/dL
Hb [2]: 13.5 g/dL
Ht [2]: 38.9%
Lym [2]: 76.5%
MCH [2]: 20.8 pg
MCHC [2]: 34.7%
MCV [2]: 60.1 fL
Mono [2]: 2.5%
Neu [2]: 19.2%
PT [2]: 12.2 s
Plat [2]: 135.8 x10_4/uL
RBC [2]: 647.4 x10_4/ul
Ret [2]: 5.1%
WBC [2]: 94.6 x10_2/uL
APTT [3]: 16.9 s
Bas [3]: 0.3%
Eos [3]: 0.6%
Fbg [3]: 269.2 mg/dL
Hb [3]: 13.9 g/dL
Ht [3]: 40.5%
Lym [3]: 78.2%
MCH [3]: 19.9 pg
MCHC [3]: 34.4%
MCV [3]: 57.8 fL
Mono [3]: 1.9%
Neu [3]: 18.2%
PT [3]: 12.2 s
Plat [3]: 143.4 x10_4/uL
RBC [3]: 700.6 x10_4/ul
Ret [3]: 3.6%
WBC [3]: 111.3 x10_2/uL
APTT [4]: 17.9 s
Bas [4]: 0.4%
Eos [4]: 0.9%
Fbg [4]: 262.8 mg/dL
Hb [4]: 15 g/dL
Ht [4]: 41.8%
Lym [4]: 78.1%
MCH [4]: 19.5 pg
MCHC [4]: 35.9%
MCV [4]: 54.4 fL
Mono [4]: 1.8%
Neu [4]: 18.2%
PT [4]: 12.3 s
Plat [4]: 121 x10_4/uL
RBC [4]: 769 x10_4/ul
Ret [4]: 2.3%
WBC [4]: 105.1 x10_2/uL
KIDNEY_L [2]: 1 g
KIDNEY_R [2]: 1 g
KIDNEY_TOTAL [2]: 2 g
KIDNEY_L [3]: 1.2 g
KIDNEY_R [3]: 1.2 g
KIDNEY_TOTAL [3]: 2.3 g
KIDNEY_L [4]: 1.3 g
KIDNEY_R [4]: 1.3 g
KIDNEY_TOTAL [4]: 2.6 g
LIVER [2]: 11.4 g
LIVER [3]: 14.3 g
LIVER [4]: 16.7 g
A/G [2]: 0.8
ALP [2]: 1903.8 IU/L
ALT [2]: 44.4 IU/L
AST [2]: 67 IU/L
BUN [2]: 16 mg/dL
CRE [2]: 0.2 mg/dL
Ca [2]: 11 mg/dL
Cl [2]: 104.8 meq/L
DBIL [2]: 0.02 mg/dL
GLC [2]: 180.2 mg/dL
IP [2]: 7 mg/dL
K [2]: 4.1 meq/L
LDH [2]: 58.2 IU/L
Na [2]: 142 meq/L
PL [2]: 135.4 mg/dL
RALB [2]: 2.6 g/dL
TBIL [2]: 0.048 mg/dL
TC [2]: 70.6 mg/dL
TG [2]: 95.2 mg/dL
TP [2]: 5.9 g/dL
gamma-GTP [2]: 1 IU/L
A/G [3]: 0.8
ALP [3]: 1384.2 IU/L
ALT [3]: 32 IU/L
AST [3]: 57.6 IU/L
BUN [3]: 14.4 mg/dL
CRE [3]: 0.2 mg/dL
Ca [3]: 10.7 mg/dL
Cl [3]: 105.8 meq/L
DBIL [3]: 0.018 mg/dL
GLC [3]: 181.4 mg/dL
IP [3]: 6.6 mg/dL
K [3]: 3.7 meq/L
LDH [3]: 52 IU/L
Na [3]: 143 meq/L
PL [3]: 137 mg/dL
RALB [3]: 2.7 g/dL
TBIL [3]: 0.048 mg/dL
TC [3]: 72.8 mg/dL
TG [3]: 133.8 mg/dL
TP [3]: 6 g/dL
gamma-GTP [3]: 1 IU/L
A/G [4]: 0.7
ALP [4]: 1254.6 IU/L
ALT [4]: 32.6 IU/L
AST [4]: 57.6 IU/L
BUN [4]: 17.8 mg/dL
CRE [4]: 0.3 mg/dL
Ca [4]: 10.8 mg/dL
Cl [4]: 104.8 meq/L
DBIL [4]: 0.02 mg/dL
GLC [4]: 191 mg/dL
IP [4]: 5.4 mg/dL
K [4]: 4 meq/L
LDH [4]: 62.2 IU/L
Na [4]: 143.2 meq/L
PL [4]: 134.6 mg/dL
RALB [4]: 2.6 g/dL
TBIL [4]: 0.054 mg/dL
TC [4]: 68.6 mg/dL
TG [4]: 179.6 mg/dL
TP [4]: 6.2 g/dL
gamma-GTP [4]: 1 IU/L
TERMINAL_BW [5]: 219.2 g
APTT [5]: 15.4 s
Bas [5]: 0.3%
Eos [5]: 1.2%
Fbg [5]: 275.8 mg/dL
Hb [5]: 12.7 g/dL
Ht [5]: 37.2%
Lym [5]: 78.2%
MCH [5]: 20.4 pg
MCHC [5]: 34.2%
MCV [5]: 59.9 fL
Mono [5]: 2.2%
Neu [5]: 17.1%
PT [5]: 11.5 s
Plat [5]: 148 x10_4/uL
RBC [5]: 623.6 x10_4/ul
Ret [5]: 4.9%
WBC [5]: 112 x10_2/uL
KIDNEY_L [5]: 0.9 g
KIDNEY_R [5]: 0.9 g
KIDNEY_TOTAL [5]: 1.7 g
LIVER [5]: 12.2 g
A/G [5]: 0.8
ALP [5]: 1525.6 IU/L
ALT [5]: 36.4 IU/L
AST [5]: 64.8 IU/L
BUN [5]: 15.8 mg/dL
CRE [5]: 0.2 mg/dL
Ca [5]: 11.2 mg/dL
Cl [5]: 106.4 meq/L
DBIL [5]: 0.02 mg/dL
GLC [5]: 171.4 mg/dL
IP [5]: 6.3 mg/dL
K [5]: 4.3 meq/L
LDH [5]: 60.6 IU/L
Na [5]: 142.2 meq/L
PL [5]: 173.4 mg/dL
RALB [5]: 2.7 g/dL
TBIL [5]: 0.064 mg/dL
TC [5]: 95.6 mg/dL
TG [5]: 89.8 mg/dL
TP [5]: 6 g/dL
gamma-GTP [5]: 1.2 IU/L
TERMINAL_BW [6]: 261 g
TERMINAL_BW [7]: 311.5 g
TERMINAL_BW [8]: 401.5 g
APTT [6]: 15.7 s
Bas [6]: 0.2%
Eos [6]: 0.6%
Fbg [6]: 300.8 mg/dL
Hb [6]: 13 g/dL
Ht [6]: 38.5%
Lym [6]: 74.3%
MCH [6]: 20.4 pg
MCHC [6]: 33.7%
MCV [6]: 60.4 fL
Mono [6]: 2.4%
Neu [6]: 21.7%
PT [6]: 11.5 s
Plat [6]: 154.1 x10_4/uL
RBC [6]: 638 x10_4/ul
Ret [6]: 6.1%
WBC [6]: 97.1 x10_2/uL
APTT [7]: 15.2 s
Bas [7]: 0.2%
Eos [7]: 0.7%
Fbg [7]: 319.4 mg/dL
Hb [7]: 13.7 g/dL
Ht [7]: 39.7%
Lym [7]: 77.1%
MCH [7]: 19.7 pg
MCHC [7]: 34.6%
MCV [7]: 57 fL
Mono [7]: 2.2%
Neu [7]: 19.3%
PT [7]: 11.5 s
Plat [7]: 140.8 x10_4/uL
RBC [7]: 696.8 x10_4/ul
Ret [7]: 3.8%
WBC [7]: 87.1 x10_2/uL
APTT [8]: 19.5 s
Bas [8]: 0.5%
Eos [8]: 0.6%
Fbg [8]: 303.6 mg/dL
Hb [8]: 14.9 g/dL
Ht [8]: 41.2%
Lym [8]: 75.9%
MCH [8]: 19.7 pg
MCHC [8]: 36%
MCV [8]: 54.7 fL
Mono [8]: 1.7%
Neu [8]: 20.7%
PT [8]: 12.1 s
Plat [8]: 114.8 x10_4/uL
RBC [8]: 753.2 x10_4/ul
Ret [8]: 2.2%
WBC [8]: 131.8 x10_2/uL
KIDNEY_L [6]: 1 g
KIDNEY_R [6]: 1 g
KIDNEY_TOTAL [6]: 2.1 g
KIDNEY_L [7]: 1.1 g
KIDNEY_R [7]: 1.1 g
KIDNEY_TOTAL [7]: 2.2 g
KIDNEY_L [8]: 1.4 g
KIDNEY_R [8]: 1.3 g
KIDNEY_TOTAL [8]: 2.7 g
LIVER [6]: 13.6 g
LIVER [7]: 15.1 g
LIVER [8]: 18.5 g
A/G [6]: 0.8
ALP [6]: 1426 IU/L
ALT [6]: 33.8 IU/L
AST [6]: 59.8 IU/L
BUN [6]: 15.2 mg/dL
CRE [6]: 0.2 mg/dL
Ca [6]: 11.3 mg/dL
Cl [6]: 105 meq/L
DBIL [6]: 0.018 mg/dL
GLC [6]: 176 mg/dL
IP [6]: 7.2 mg/dL
K [6]: 3.9 meq/L
LDH [6]: 61.2 IU/L
Na [6]: 142.8 meq/L
PL [6]: 163 mg/dL
RALB [6]: 2.7 g/dL
TBIL [6]: 0.054 mg/dL
TC [6]: 91 mg/dL
TG [6]: 100.2 mg/dL
TP [6]: 6.1 g/dL
gamma-GTP [6]: 1 IU/L
A/G [7]: 0.8
ALP [7]: 1317.4 IU/L
ALT [7]: 34.6 IU/L
AST [7]: 58.6 IU/L
BUN [7]: 15.8 mg/dL
CRE [7]: 0.2 mg/dL
Ca [7]: 10.9 mg/dL
Cl [7]: 106.6 meq/L
DBIL [7]: 0.012 mg/dL
GLC [7]: 187 mg/dL
IP [7]: 6.5 mg/dL
K [7]: 3.5 meq/L
LDH [7]: 49.6 IU/L
Na [7]: 144.4 meq/L
PL [7]: 156.6 mg/dL
RALB [7]: 2.8 g/dL
TBIL [7]: 0.046 mg/dL
TC [7]: 88.2 mg/dL
TG [7]: 88.8 mg/dL
TP [7]: 6.3 g/dL
gamma-GTP [7]: 1.4 IU/L
A/G [8]: 0.7
ALP [8]: 844.2 IU/L
ALT [8]: 32.8 IU/L
AST [8]: 52.6 IU/L
BUN [8]: 16.2 mg/dL
CRE [8]: 0.3 mg/dL
Ca [8]: 11 mg/dL
Cl [8]: 103.8 meq/L
DBIL [8]: 0.012 mg/dL
GLC [8]: 189.6 mg/dL
IP [8]: 6.1 mg/dL
K [8]: 3.5 meq/L
LDH [8]: 53.6 IU/L
Na [8]: 144.4 meq/L
PL [8]: 167.2 mg/dL
RALB [8]: 2.7 g/dL
TBIL [8]: 0.056 mg/dL
TC [8]: 91.4 mg/dL
TG [8]: 132 mg/dL
TP [8]: 6.5 g/dL
gamma-GTP [8]: 1.4 IU/L
